From patent US8920832B2, “Composition for nucleic acid transfection” (Hokkaido System Science Co., Ltd., priority 2006, dated 2014)

Assays:
[1] = system: HT1080 cells; assay: DNA (pCMV-SPORT-βgal) transfection into HT1080 cells: β-gal activity; type: cell-based
From the text: (§1) The procedure of Test Example 5 was repeated, except that HeLa cells were replaced with HT1080 cells.
(§2) The procedure of Test Example 7 was repeated, except that HeLa cells were replaced with HT1080 cells.

[2] = system: HeLa cells; assay: Viable cell counting (WST-1), cell survival rate, HeLa cells; type: cell-based
Protocol: (§3) Viable cell counting was carried out by means of a Cell Counting Kit (product of Dojindo Laboratories) based on WST-1 assay. […] Thereafter, absorbance was measured at 450 nm. A cell count vs. A450 standard curve was prepared on the basis of a separately prepared dilution series of different numbers of inoculated cells, and the number of viable cells was estimated by use of the standard curve.

[3] = system: HT1080 cells; assay: Viable cell counting (WST-1), cell survival rate, HT1080 cells; type: cell-based
Protocol: as §3, §1, §2

[4] = system: HeLa cells; assay: Cytotoxicity score under microscope after DNA transfection, HeLa cells; type: cell-based
Protocol: (§4) HeLa cells were inoculated into a 96-well plate (7,500 cells/100 μL/well), followed by culturing for about 24 hours. DNA (pCMV-SPORT-βgal) was diluted with a DMEM medium, to thereby prepare a DNA-diluted solution having a DNA concentration of 8 μg/mL (for the case of 200 ng/well). […] The thus-obtained solution or Lipofectamine 2000 as a positive control (product of Invitrogen) was diluted with a DMEM medium so that the amount of the reconstituted liposome solution or Lipofectamine 2000 added to cells was “Amount of liposomes added (μL/well)” shown in Table 9 or 10. Immediately after dilution, the DNA-diluted solution (25 μL) was added to and mixed with the liposome-diluted solution (25 μL), and the mixture was allowed to stand still at room temperature for 30 minutes, to thereby form a DNA/liposome complex. The DNA/liposome complex (50 μL) was added to the inoculated HeLa cells (about 70 to about 90% confluent), to thereby initiate transfection. After culturing at 37° C. and 5% CO2 for one hour, a 10% FBS/DMEM medium (100 μL) was added to the culture liquid, followed by culturing at 37° C. and 5% CO2 for about 21 hours.
(§5) Each of the enhancers shown in Table 13 was diluted with a DMEM medium to different concentrations so that the amount of the enhancer finally added to cells was “Enhancer amount (μg/well)” shown in Table 13. […] The thus-diluted liposome solution was added to an equiamount of the above-diluted enhancer, followed by incubation at room temperature for 20 minutes. […] Subsequently, cytotoxicity was evaluated according to the aforementioned scores, and determination of β-gal activity, quantitative determination of protein, and viable cell counting were carried out.

[5] = system: HT1080 cells; assay: Cytotoxicity score under microscope after DNA transfection, HT1080 cells; type: cell-based; set-up: scale not given here
From the text: as §1, §2

[6] = system: HeLa cells; assay: DNA (pCMV-SPORT-βgal) transfection into HeLa cells: β-gal activity; details: HeLa
Protocol: as §4
The culture supernatant was removed, and the cells were washed with PBS(−). Thereafter, determination of β-galactosidase (hereinafter may be abbreviated as “β-gal”) activity, quantitative determination of protein, and viable cell counting were carried out as described below.
After complete removal of PBS through suction, a lysis buffer (30 μL) was added to the cells, and the mixture was stirred and then allowed to stand still at −80° C. for 30 minutes or longer for freezing. After rapid thawing in a water bath at 37° C., the mixture was again allowed to stand still at −80° C. for 30 minutes or longer for freezing, followed by rapid thawing in a water bath at 37° C. Thereafter, centrifugation was carried out (2,000 g×10 minutes), and the resultant supernatant (sample) (10 μL) was added to a 96-well microplate.
Determination of β-gal activity was carried out by means of a β-gal assay kit (product of Invitrogen). […] A 2-Me-containing cleavage buffer was added (50 μL/well) to the sample or each of the standard-diluted solutions (10 μL), and 4 mg/mL aqueous ONPG solution was added (17 μL/well), followed by incubation at 37° C. for 30 minutes. After completion of incubation, a stop buffer was added (120 μL/well) for termination of reaction, and absorbance was measured at 405 nm.
as §5

[7] = Formulation Example 4 0.38 μL/well, enhancer 0.625 μg/well
[8] = Formulation Example 4 0.38 μL/well, enhancer 1.25 μg/well
[9] = Formulation Example 4 0.38 μL/well, enhancer 2.5 μg/well
[10] = Formulation Example 4 0.38 μL/well, enhancer 5 μg/well
[11] = Formulation Example 4 0.38 μL/well, enhancer 10 μg/well
[12] = Formulation Example 4 0.75 μL/well, enhancer 0.625 μg/well
[13] = Formulation Example 4 0.75 μL/well, enhancer 1.25 μg/well
[14] = Formulation Example 4 0.75 μL/well, enhancer 2.5 μg/well
[15] = Formulation Example 4 0.75 μL/well, enhancer 5 μg/well
[16] = Formulation Example 4 0.75 μL/well, enhancer 10 μg/well

## poly L-lysine
[1]; [7]
  β-gal activity: 76.7 mU/well
[1]; [8]
  β-gal activity: 49.5 mU/well
[1]; [9]
  β-gal activity: 25.7 mU/well
[1]; [10]
  β-gal activity: 12.2 mU/well
[1]; [11]
  β-gal activity: 8.8 mU/well
[1]; [12]
  β-gal activity: 98.0 mU/well
[1]; [13]
  β-gal activity: 93.8 mU/well
[1]; [14]
  β-gal activity: 59.2 mU/well
[1]; [15]
  β-gal activity: 42.7 mU/well
[1]; [16]
  β-gal activity: 25.3 mU/well
[2]; [7]
  Cell survival rate: 62%
[2]; [8]
  Cell survival rate: 71%
[2]; [9]
  Cell survival rate: 70%
[2]; [10]
  Cell survival rate: 70%
[2]; [11]
  Cell survival rate: 76%
[2]; [12]
  Cell survival rate: 73%
[2]; [13]
  Cell survival rate: 94%
[2]; [14]
  Cell survival rate: 99%
[2]; [15]
  Cell survival rate: 97%
[2]; [16]
  Cell survival rate: 99%
[3]; [7]
  Cell survival rate: 53%
[3]; [8]
  Cell survival rate: 72%
[3]; [9]
  Cell survival rate: 78%
[3]; [10]
  Cell survival rate: 65%
[3]; [11]
  Cell survival rate: 80%
[3]; [12]
  Cell survival rate: 62%
[3]; [13]
  Cell survival rate: 75%
[3]; [14]
  Cell survival rate: 82%
[3]; [15]
  Cell survival rate: 86%
[3]; [16]
  Cell survival rate: 82%
[4]; [7]
  Cytotoxicity score: 0.5
[4]; [8]
  Cytotoxicity score: 0.0
[4]; [9]
  Cytotoxicity score: 0.0
[4]; [10]
  Cytotoxicity score: 0.5
[4]; [11]
  Cytotoxicity score: 0.5
[4]; [12]
  Cytotoxicity score: 1.0
[4]; [13]
  Cytotoxicity score: 0.5
[4]; [14]
  Cytotoxicity score: 0.0
[4]; [15]
  Cytotoxicity score: 0.0
[4]; [16]
  Cytotoxicity score: 0.5
[5]; [7]
  Cytotoxicity score: 2.0
[5]; [8]
  Cytotoxicity score: 2.0
[5]; [9]
  Cytotoxicity score: 1.0
[5]; [10]
  Cytotoxicity score: 0.5
[5]; [11]
  Cytotoxicity score: 1.0
[5]; [12]
  Cytotoxicity score: 2.5
[5]; [13]
  Cytotoxicity score: 2.0
[5]; [14]
  Cytotoxicity score: 1.5
[5]; [15]
  Cytotoxicity score: 0.5
[5]; [16]
  Cytotoxicity score: 1.0
[6]; [7]
  β-gal activity: 23.9 mU/well
[6]; [8]
  β-gal activity: 3.4 mU/well
[6]; [9]
  β-gal activity: 0.6 mU/well
[6]; [10]
  β-gal activity: 0.6 mU/well
[6]; [11]
  β-gal activity: 0.1 mU/well
[6]; [12]
  β-gal activity: 54.1 mU/well
[6]; [13]
  β-gal activity: 6.6 mU/well
[6]; [14]
  β-gal activity: 1.5 mU/well
[6]; [15]
  β-gal activity: 0.7 mU/well
[6]; [16]
  β-gal activity: 0.2 mU/well
